The source of these data is paper PMC12454639, “Direct disassembly of α-syn preformed fibrils into α-syn monomers by an all-D-peptide” (NPJ Parkinson's Disease, 2025).

Each structure is given as a SMILES string. Square brackets hold non-standard residues; d marks the D form. Peptide text beside a SMILES is read from it.

Data set [1] has as its system small α-syn PFF seeds. In words: Protein quantification after centrifugation (precipitation of small α-syn PFF). The class given is physicochemical. The note with it: as DLS samples (200 nM PFF + 500 nM SVD-1a), 0, 20, 72 h at 37 °C, centrifuged 21,000×g 30 min, Micro-BCA, n = 3. The protocol:
Measurements were performed using a SpectroSize 300 131 (XtalConcepts, GE) instrument and a sample volume of 1 ml in a sealed quartz cuvette (Hellma Group, GE). Samples were incubated in PBS pH 7.4 at 37 °C under quiescent conditions. Prior to measurements, all samples were centrifuged at 21,000×g for 30 min at 4 °C to remove potential impurities from the solution. For time-dependent DLS measurements, data points were recorded every 60 s. Diffusion coefficients were obtained from analysis of the decay of the scattered intensity autocorrelation function and were used to determine apparent hydrodynamic radii via the Stokes-Einstein equation. Kinetic fitting for the degradation of small α-syn PFF seeds was performed with the “SVD-1a + small α-syn PFF” sample using the “single-phase exponential decay function” of GraphPad Prism 10 (GraphPad Software Inc., USA), considering only particle sizes in the range of 1–100 nm with an amplitude > 0.2. […] Protein quantification after centrifugation was performed by incubating identical samples as in the DLS measurements with additional compound and buffer controls in low-binding reaction tubes at 37 °C under quiescent conditions (n = 3). […] Protein quantification of pellet and supernatant was performed using a Micro-BCA kit following the manufacturer’s instructions (Thermo Fisher Scientific, USA). […]

Data set [2] relates to 15N-labeled full-length acetyl-α-syn. In words: NMR paramagnetic relaxation enhancement (PRE). Type of data set: binding. As to conditions: spin-labeled SVD-1a (SVD-1a_Cys_MTSL), 1:1 with α-syn, 10 °C. The procedure:
The spin-labeled analog of SVD-1a was prepared by covalent attachment of MTSL (S-(1-oxyl-2,2,5,5-tetramethyl-2,5-dihydro-1H-pyrrol-3-yl)methyl methanesulfonothioate, Toronto Research Chemicals, USA) to the C-terminal D-cysteine residue of SVD-1a_Cys. MTSL was dissolved in DMF (N,N-dimethylformamide) with a concentration of 20 mM and diluted in 200 mM HEPES, pH 7.6, to a final concentration of 2 mM. 900 µl of the solution was then added to 1 mg of lyophilized SVD-1a_Cys to create a fivefold molar excess of MTSL compared to SVD-1a_Cys. […]
NMR paramagnetic relaxation enhancement (PRE) data were recorded on 25 µM ^15N-labeled full-length acetyl-α-syn in the presence of 25 µM paramagnetically labeled (but not isotopically enriched) SVD-1a_Cys_MTSL (using a MTSL spin-label covalently attached to the SVD-1a C-terminus), resulting in a 1:1 ratio of α-syn: SVD-1a. Intensities (Ipara) were extracted from 2D ^1H–^15N Best-TROSY NMR spectra recorded at 600 MHz and 10 °C, each with 128 scans per increment, resulting in a total experimental time of 16 h per spectrum. […] The diamagnetic reference spectra and intensities (Idia) were recorded back-to-back and under identical conditions as for the paramagnetic sample. […]

As for `CC[C@@H](C)[C@@H](NC(=O)[C@@H](Cc1c[nH]cn1)NC(=O)[C@@H](CCC(=O)O)NC(=O)[C@@H](CCC(N)=O)NC(=O)[C@@H](Cc1c[nH]c2ccccc12)NC(=O)[C@@H](Cc1ccc(O)cc1)NC(=O)[C@H](NC(=O)[C@@H](CCC(=O)O)NC(=O)[C@@H](Cc1c[nH]cn1)NC(=O)[C@H](NC(=O)[C@H]1CCCN1C(=O)[C@@H](CC(C)C)NC(=O)[C@H](N)CCCNC(=N)N)[C@H](C)O)[C@H](C)O)C(=O)N[C@H](Cc1c[nH]c2ccccc12)C(=O)N[C@H](Cc1c[nH]cn1)C(=O)N[C@H](C)C(=O)N[C@H](CCCNC(=N)N)C(=O)N[C@H](CCCNC(=N)N)C(=O)N[C@H](CCCNC(=N)N)C(=O)N[C@H](CCCNC(=N)N)C(=O)N[C@H](CCCNC(=N)N)C(N)=O` [SVD-1a] (H-[dR][dL][dP][dT][dH][dE][dT][dY][dW][dQ][dE][dH][dI][dW][dH][dA][dR][dR][dR][dR][dR]-NH2), in data set [1], the “precipitation of small α-syn PFF seeds” value is reported as “did not lead to precipitation of these species”. Also, the “site of interaction with α-syn (PRE)” value in data set [2] is “interacts with the entire α-syn monomer, with the C-terminal part showing the strongest interaction”.
